Assay results published in ChEMBL document CHEMBL1152696, “Interaction study of bioactive molecules with fibrinogen and human platelets determined by 1H NMR relaxation experiments” (Bioorg Med Chem, 2009).

Tests used:
[1] = system: Platelet; assay: Binding interaction with platelet assessed as spin lattice relaxation rate enumerated as normalized affinity index at given concentration and fixed temperature by NMR relaxation experiment; assay type: cell-based
[2] = Binding interaction with fibrinogen assessed as spin lattice relaxation rate enumerated as normalized affinity index at given concentration and fixed temperature by NMR relaxation experiment

CNC[C@H](O)c1ccc(O)c(O)c1
[A]T,L (10'-8 /no of units.cm'3) [1]: 4.66 | [A]T,L [2]: 26900 /mol.dm'3

CC(C)NCC(O)c1ccc(O)c(O)c1 (centres undefined)
[A]T,L (10'-8 /no of units.cm'3) [1]: 4.47 | [A]T,L [2]: 9730 /mol.dm'3
